Measurements as given in EPA's ToxValDB 9.5 (doi:10.2903/j.efsa.2010.1783).
≈ marks a conversion by molar mass, not a printed value.

Tests used:
Coturnix japonica = conditions: reproduction developmental; duration: 20 weeks
Colinus virginianus = conditions: acute, oral, mortality
Anas platyrhynchos = conditions: acute; oral; unspecified; mortality
Tagia sp. = conditions: acute; duration: 14 days; mortality
Rattus norvegicus = conditions: acute; oral; mortality
Oncorhynchus mykiss = conditions: acute; duration: 96 hours; mortality
Oryctolagus sp. = conditions: subchronic; duration: 90 days; oral; hematological
Daphnia magna = conditions: acute; duration: 48 hours; mortality

## O=c1oc2ccccc2c(O)c1C(CC(O)c1ccc(-c2ccc(Br)cc2)cc1)c1ccccc1 (centres undefined) [Bromadiolone]
Coturnix japonica
  NOEL: 0.011 mg/kg-day
Colinus virginianus; duration: 5 days, diet
  LD50: 8.3 mg/kg-day
Colinus virginianus
  LD50: 138 mg/kg
Anas platyrhynchos
  LD50: 1290 mg/kg
Tagia sp.
  LC50: > 4.74 mg/kg
Rattus norvegicus
  LD50: < 0.84 mg/kg
Oncorhynchus mykiss
  LC50: > 8 mg/L
Oryctolagus sp.
  NOAEL: 0.5 mg/kg-day
Daphnia magna
  LC50: 2 mg/L (≈ 3.79 µM)
